| glass transition temperature [°C] | SMILES |
| --- | --- |
| 57.00 | *CC(*)c1cc(C(=O)OCCCCCCCC)ccc1-c1ccc(OCCCCCCCC)cc1 (repeat unit) |
| 208.00 | *c1cccc(Cc2cccc(N3C(=O)c4ccc([Si](C)(C)O[Si](C)(C)O[Si](C)(C)c5ccc6c(c5)C(=O)N(*)C6=O)cc4C3=O)c2)c1 (repeat unit) |
| 210.00 | *Oc1ccc(OC(=O)/C=C/c2ccc(/C=C/C(*)=O)cc2)cc1 (repeat unit) |
| 130.00 | *Nc1ccc(CC(C)(C)NC(=O)CCCCC(*)=O)cc1 (repeat unit) |
| 6.00 | *Oc1ccc(CC(NC(=O)CCc2ccc(OC(=O)CCCCCCC(*)=O)cc2)C(=O)OCCOCCOCC)cc1 (repeat unit) |
| 60.00 | *CCCCCCCCCCNC(=O)CCCCCCCCC(=O)N* (repeat unit) |
| 30.00 | *Oc1ccc(C(=O)OCCOCCOCCOC(=O)c2ccc(OC(=O)c3ccc(C(*)=O)cc3)cc2)cc1 (repeat unit) |
| 260.00 | *c1ccc(Oc2ccc(-c3nc4cc(Oc5ccc(NC(=O)c6cc(C(=O)Nc7ccc(Oc8ccc9nc(-c%10ccccc%10)c(*)nc9c8)cc7)cc(N7C(=O)c8ccccc8C7=O)c6)cc5)ccc4nc3-c3ccccc3)cc2)cc1 (repeat unit) |
| 310.00 | *c1ccc(Oc2c(C)cc(Cc3cc(C)c(Oc4ccc(N5C(=O)c6ccc(-c7ccc8c(c7)C(=O)N(*)C8=O)cc6C5=O)cc4)c(C)c3)cc2C)cc1 (repeat unit) |
| -36.00 | */C=C/CCCCCCCCCC(CCCCCCCCC*)COCCOCCOCCOCCOCc1ccc2ccc3cccc4ccc1c2c34 (repeat unit) |
| 265.00 | *c1ccc(Oc2ccc(Oc3ccc(N4C(=O)c5ccc(-c6ccc7c(c6)C(=O)N(*)C7=O)cc5C4=O)cc3)c(C)c2)cc1 (repeat unit) |
| 155.00 | *C1C(=O)OC(=O)C1C1C2CC(C(=O)OCCOCC)C(C2)C1* (repeat unit) |
| 370.50 | *c1ccc2c(c1)C(=O)N(c1c(C)cc(-c3cc(C)c(N4C(=O)c5ccc(C(*)(C(F)(F)F)C(F)(F)F)cc5C4=O)c(C)c3)cc1C)C2=O (repeat unit) |
| 166.00 | *Oc1ccc(C2(c3ccc(OC(=O)CCCCC(*)=O)cc3)c3ccccc3-c3ccccc32)cc1 (repeat unit) |
| 103.00 | *CCCCOC(=O)C(Cc1ccccc1)NC(=O)/C=C/C(=O)NC(Cc1ccccc1)C(=O)O* (repeat unit) |
| 186.00 | *Nc1cc(NC(=O)c2cccc(C(*)=O)c2)cc(C(=O)OCCOC(=O)/C=C/c2ccc(N(C)C)cc2)c1 (repeat unit) |
| 78.70 | *CCCCCCCCOc1c(OC)cc(/C=C/c2ccc(/C=C/c3ccc(/C=C/c4cc(OC)c(O*)c(OC)c4)cc3)cc2)cc1OC (repeat unit) |
| 315.00 | *c1ccc(Oc2c(C)cc(C(c3cc(C)c(Oc4ccc(-n5c(=O)c6cc7c(=O)n(*)c(=O)c7cc6c5=O)cc4)c(C)c3)c3cccc4ccccc34)cc2C)cc1 (repeat unit) |
| 136.00 | *CCN(CCOC(=O)NCC1(C)CC(NC(=O)O*)CC(C)(C)C1)c1ccc(/N=N/c2ccc(C#N)cc2)cc1 (repeat unit) |
| 95.50 | *=CNc1ccc(Cc2ccc(N=*)cc2)cc1 (repeat unit) |

| glass transition temperature [°C] | SMILES |
| --- | --- |
| 95.00 | *O[Si](C)(Oc1ccc(*)cc1)c1ccccc1 (repeat unit) |
| 44.00 | *Oc1ccc(CC(NC(=O)CCc2ccc(OC(=O)COCCOCC(*)=O)cc2)C(=O)OC(C)CC)cc1 (repeat unit) |
| 134.00 | *CC1CCC(COC(=O)Nc2ccc(Cc3ccc(NC(=O)O*)cc3)cc2)CC1 (repeat unit) |
| 52.00 | */C=C/C1CC(*)C2C(=O)N(CCCCCCCCC)C(=O)C12 (repeat unit) |
| 184.00 | *Oc1ccc(C2(c3ccc(OC(=O)OC4C(C)(C)C(OC(*)=O)C4(C)C)cc3)CC3CCC2C3)cc1 (repeat unit) |
| 69.00 | *CC(*)c1ccccc1C(=O)OCCN(C)C (repeat unit) |
| 256.50 | *C(=O)c1cc(C(=O)c2ccc3c(c2)C(=O)N(c2ccc(Oc4ccc(S(=O)(=O)c5ccc(Oc6ccc(N7C(=O)c8ccc(*)cc8C7=O)cc6)cc5)cc4)cc2)C3=O)cc(-c2ccccc2)c1 (repeat unit) |
| 260.00 | *c1ccc(Oc2ccc(C(=O)c3ccc(Oc4ccc(-c5c6c(c(*)c7ccccc57)C(=O)N(c5ccccc5C(F)(F)F)C6=O)cc4)cc3)cc2)cc1 (repeat unit) |
| 70.00 | *CC(=O)OC(=O)COc1ccc(O*)cc1 (repeat unit) |
| 219.00 | *C(=O)Nc1ccc(-c2ccc(N3C(=O)CC(N4C(=O)c5ccc(*)cc5C4=O)C3=O)cc2)cc1 (repeat unit) |
| 233.00 | *c1ccc(-c2ccc(NC(=O)c3cccc(C(=O)Nc4ccc(-c5ccc(N6C(=O)c7ccc(Oc8ccc9c(c8)C(=O)N(*)C9=O)cc7C6=O)cc5)cc4)c3)cc2)cc1 (repeat unit) |
| 40.30 | *CCCCCCOC(=O)NC1CCC(CC2CCC(NC(=O)OCCCCCCOc3ccc(CCc4ccc(O*)cc4)cc3)CC2)CC1 (repeat unit) |
| 263.00 | *Oc1cccc2ccc(Oc3ccc(NC(=O)c4cc(C(=O)Nc5ccc(*)cc5)cc(C(C)(C)C)c4)cc3)cc12 (repeat unit) |
| 281.10 | *c1cc(Oc2c(C)cc(-c3cc(C)c(Oc4cc(N5C(=O)c6ccc(-c7ccc8c(c7)C(=O)N(*)C8=O)cc6C5=O)cc(C(F)(F)F)c4)c(C)c3)cc2C)cc(C(F)(F)F)c1 (repeat unit) |
| 55.00 | *Oc1ccc(CC(NC(=O)CCc2ccc(OC(=O)COCCOCC(*)=O)cc2)C(=O)OCc2ccccc2)cc1 (repeat unit) |
| 150.00 | *Oc1ccc(/N=C(\C)c2ccc(Oc3ccc(C(c4ccccc4)(c4ccccc4)c4ccc(Oc5ccc(/C(C)=N/c6ccc(*)cc6)cc5)cc4)cc3)cc2)cc1 (repeat unit) |
| 53.00 | *Oc1ccc(CC(NC(=O)CCc2ccc(OC(=O)CCC(C)CC(*)=O)cc2)C(=O)OC)cc1 (repeat unit) |
| 28.00 | *Oc1ccc(CC(NC(=O)Cc2ccc(OC(=O)CCCCC(*)=O)cc2)C(=O)OCCCCCCCC)cc1 (repeat unit) |
| 145.00 | *Oc1ccc(SC(=O)Oc2ccc(C(C)(C)c3ccc(OC(=O)Sc4ccc(*)cc4)cc3)cc2)cc1 (repeat unit) |

| SMILES | glass transition temperature [°C] |
| --- | --- |
| */C=C/C(C)C* (repeat unit) | -35.00 |
| *Nc1ccc(NC(=O)c2ccc(P(=O)(c3ccccc3)c3ccc(C(*)=O)cc3)cc2)cc1 (repeat unit) | 252.00 |
| *CC(OC=O)C(COC(=O)O*)OC=O (repeat unit) | 54.30 |
| *c1ccc(-c2nnc(*)o2)c(OCC)c1 (repeat unit) | 231.00 |
| *CC(*)c1ccc(C(=O)N(C)C)cc1 (repeat unit) | 125.00 |
| */C=C/C1CC(*)C([Si](C)(C)C)C1 (repeat unit) | 113.00 |
| *O[Si](*)(C)CCC (repeat unit) | -120.00 |
| *CC(O*)c1ccco1 (repeat unit) | 12.50 |

— the PolyMetriX glass transition set
